Results: BigSolDB 2.1

O=P1(c2cc(O)ccc2O)Oc2ccccc2-c2ccccc21 (configuration not stated)
Settings	solubility (mole fraction)
in 2-ethoxyethanol, 293.15 K	0.000896
in 2-ethoxyethanol, 298.15 K	0.0012
in 2-ethoxyethanol, 302.98 K	0.00157
in 2-ethoxyethanol, 308 K	0.00207
in 2-ethoxyethanol, 313 K	0.00248
in 2-ethoxyethanol, 317.8 K	0.00347
in 2-ethoxyethanol, 322.7 K	0.00439
in 2-ethoxyethanol, 327.65 K	0.00556
in 2-ethoxyethanol, 332.65 K	0.00702
in 2-ethoxyethanol, 337.6 K	0.00896
in 2-ethoxyethanol, 342.58 K	0.0109
in 2-ethoxyethanol, 347.4 K	0.0134
in 2-ethoxyethanol, 352.83 K	0.0168
in 2-ethoxyethanol, 357.7 K	0.0207
in 2-ethoxyethanol, 362.67 K	0.0249
in 2-ethoxyethanol, 367.65 K	0.0301
in acetone, 292.15 K	0.00153
in acetone, 297.15 K	0.00182
in acetone, 302.15 K	0.00226
in acetone, 307.85 K	0.00304
in acetone, 312.9 K	0.0037
in acetone, 317.65 K	0.00427
in acetone, 322.6 K	0.00551
in ethanol, 293.15 K	0.00205
in ethanol, 298.1 K	0.00224
in ethanol, 303.05 K	0.00241
in ethanol, 307.95 K	0.0027
in ethanol, 312.95 K	0.00282
in ethanol, 317.8 K	0.00309
in ethanol, 322.8 K	0.00332
in ethanol, 327.85 K	0.00352
in methanol, 293.15 K	0.00107
in methanol, 298 K	0.00128
in methanol, 302.9 K	0.0015
in methanol, 307.85 K	0.00182
in methanol, 312.84 K	0.00227
in methanol, 317.6 K	0.0026
in methanol, 322.63 K	0.00292
in water, 303 K	0.000139
in water, 307.95 K	0.000143
in water, 312.85 K	0.000151
in water, 317.6 K	0.000155
in water, 322.45 K	0.000165
in water, 327.65 K	0.000168
in water, 332.5 K	0.000175
in water, 337.55 K	0.000184
in water, 342.35 K	0.000189
